One block for each molecule: values may come before it. *1 amine or outer side, *2 acyl side, *3 side chain or, on linkers, in order; H or OH if unused. Primed or numbered codes have the meaning given here. Where no end group is shown, it is not given here. [ ]: non-standard residue; d: D form. Atz = (S)-2-amino-3-(1H-1,2,3-triazol-4-yl)propanoyl residue, substituent (PEG) on triazole N1, O=C([C@H](Cc1cn([*:3])nn1)N[*:1])[*:2]; Oic = O=C(O)[C@@H]1C[C@@H]2CCCC[C@@H]2N1; Phe(4-Cl) = N[C@@H](Cc1ccc(Cl)cc1)C(=O)O; hArg = N=C(N)NCCCC[C@H](N)C(=O)O; Cha = N[C@@H](CC1CCCCC1)C(=O)O; 20K‑mPEG = 20 kDa methoxy-PEG; 40K‑mPEG = 40 kDa methoxy-PEG; pGlu = O=C1CC[C@@H](C(=O)O)N1; PEG10′ = not defined here; Nle = CCCC[C@H](N)C(=O)O; Mpa = O=C(O)CCS
Assays:
[1] = target: T1, human APJ (Homo sapiens, UniProt P35414); assay: cAMP assay, stable CHO cell line expressing human APJ; type: cell-based; settings: FIG. 5; cAMP seen with either human or rat APJ stable cell lines
T1 construct: expressed in transfected cells
T1 sequence (P35414 1-380): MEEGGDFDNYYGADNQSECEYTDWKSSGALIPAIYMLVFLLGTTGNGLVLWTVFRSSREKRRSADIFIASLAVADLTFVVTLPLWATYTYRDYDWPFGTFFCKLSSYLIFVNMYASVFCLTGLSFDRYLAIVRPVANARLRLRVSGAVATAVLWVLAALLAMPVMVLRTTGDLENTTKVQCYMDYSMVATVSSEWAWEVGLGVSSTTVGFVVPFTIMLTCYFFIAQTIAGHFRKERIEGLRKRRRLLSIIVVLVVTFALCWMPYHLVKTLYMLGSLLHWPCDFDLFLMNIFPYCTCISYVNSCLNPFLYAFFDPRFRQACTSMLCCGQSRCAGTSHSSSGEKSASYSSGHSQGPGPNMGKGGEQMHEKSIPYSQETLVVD
Experimental: Stable CHO cell lines expressing APJ were used for cAMP assays. The cells were incubated with stimulation buffer containing HANK's buffer, forskolin and 0.5 mM IBMX in the absence or presence of various concentrations' of peptides at 37° C. for 45 min. The cAMP level was determined using a cyclic AMP kit (DiscoverX) according to the manufacturer's instructions.

[2] = test system: isolated Langendorff rat heart; assay: Langendorff isolated rat heart, hemodynamic cardiac function; settings: control rats, FIGS. 7 and 8
Description: To assess the hemodynamic cardiac function of the peptides a Langendorff isolated heart system was used. The isolated heart from rat provides broad spectrum of measurements that can include biochemical, metabolic, morphological and physiological indices. The limitations/advantages of the method include absence of neurohormonal influences, neural regulation and high coronary flows. Such limitations, however, are offset by the ability to study direct cardiac effects without systemic circulation and a host of peripheral interactions.
The reproducibility and accuracy of measurements and relatively low costs over in vivo studies for profiling drugs outweigh any limitations of this method. Therefore, this method provides excellent dose-response relationship and sheds critical insight into the pharmacological and physiological properties of the molecules of interest.
The animals were anesthetized upon administration of 50-100 mg/kg dose of sodium pentobarbital for rat via the intraperitoneal route. The heart was excised and gently cradled between fingers to avoid injury followed by lifting slightly before incising the aorta, vena cava and pulmonary vessels Immediately after excision of the heart with aorta, the heart was mounted onto the cannula in the Langendorff apparatus via the aorta. The heart was perfused with modified oxygenated Krebs-Henseleit buffer pH7.5 and equilibrated with 95% O2/5% CO2 at 37° C. The perfusion was performed at a constant flow of 10 ml/min and paced at 300 bpm. The pressure was measured through a pressure sensing balloon catheter inserted in the LV cavity. The intrinsic inotropy (force of muscle contraction) and lusitropy (cardiac relaxation) effects of the heart were assessed by dp/dtmax and dp/dtmin.
These figures illustrate improvement in both systolic and diastolic function of normal hearts with peptides of SEQ ID NOs: 23 and 24.

[3] = target: T2, rat APJ receptor (Rattus norvegicus, UniProt Q9JHG3); assay: [35S]GTPγS assay, membranes from stable cell lines, rat APJ; type: biochemical; settings: FIG. 10; effect of PEG size (20 kDa vs 40 kDa)
T2 construct: expressed in transfected cells; CHO is named only for the cAMP assay
T2 sequence (Q9JHG3 1-377): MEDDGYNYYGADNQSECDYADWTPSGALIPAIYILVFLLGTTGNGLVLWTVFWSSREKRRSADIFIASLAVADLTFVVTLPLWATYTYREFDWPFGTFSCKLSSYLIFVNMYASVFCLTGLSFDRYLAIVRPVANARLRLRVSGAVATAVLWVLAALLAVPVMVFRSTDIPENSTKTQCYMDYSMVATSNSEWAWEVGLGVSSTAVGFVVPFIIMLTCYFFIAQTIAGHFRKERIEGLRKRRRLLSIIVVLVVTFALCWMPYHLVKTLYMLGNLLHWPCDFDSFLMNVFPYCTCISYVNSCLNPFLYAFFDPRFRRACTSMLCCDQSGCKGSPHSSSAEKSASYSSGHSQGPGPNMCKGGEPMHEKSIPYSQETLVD
Experimental: To assay for GTP, membranes were prepared from stable cell lines and used to determine the efficacy/potency of the modified peptides. The optimal experimental conditions for the concentrations of GDP, MgCl2 and NaCl in the assay buffer were initially determined. The membranes were incubated with modified peptides in the assay buffer. The reaction was initiated by addition of [^35S] GTPγS in the absence or presence of peptides and incubated at room temperature for 90 min. […] Bound [^35S] GTPγS was separated from free radiolabel by filtration. The filter bound radioactivity was determined by liquid scintillation counting.
A series of PEGylated peptides were prepared and screened in vitro to explore the effects of PEG size and peptide valency on potency and efficacy in the GTPγS assay. In the assay 20 kDA and 40 kDA PEG were compared (FIG. 10).
Additionally mono- and multivalent bis, and tetrakis-peptide conjugated PEGS were prepared to explore peptide valency. […]

[4] = background statement; cited from earlier work
[5] = in vitro; settings: rat, plasma
Experimental: Apelin peptides were spiked into freshly prepared mouse, rat, dog and human EDTA plasma to a final concentration of 5 μM. The plasma samples were then incubated at 37° C. over a period of 4 hr. Up to 8 time points were sampled to facilitate estimation of in vitro half life in plasma matrices. In a typical experiment, aliquot of 100 μL of plasma sample was taken from the incubation vial, followed by addition of 300 μL of MeOH containing internal standard. The quenched sample was centrifuged at 5500 g for 15 min after 15 min vortex in room temperature. The supernatant was then analyzed by high resolution LC-MS.

[6] = In vitro plasma stability of apelin peptides (Table 15; plasma species not given); type: in vitro ADME; settings: 5 μM in plasma, 37° C.
Description: (metabolite data not shown).

[7] = FIGURE 4B
Description: Table printed on a drawing sheet, FIGURE 4B
Section band inside the table: Peptides with triazole linker and 20 kDa PEG modification
The patent's description of the figure: FIGS. 4A-B. In vitro stability of APJ agonists in plasma.
First reader's note: Rows 3 and 9 of the grid are section headings spanning all columns (linker type of the 20 kDa PEGylated peptides).

[8] = target: T3, APJ receptor (Rattus norvegicus, UniProt Q9JHG3); assay: EC50
T3 construct: expressed in transfected cells; CHO is named only for the cAMP assay
T3 sequence (Q9JHG3 whole entry, looked up): T2 sequence (Q9JHG3 1-377)
Description: Table printed on a drawing sheet, FIGURE 11
The patent's description of the figure: FIG. 11. Effects of peptide valency on in vitro activity.
First copying reader's note: The sheet prints no unit for the EC50 column; the plot under the table ([35S]GTPγS binding, rAPJ stable cell line) is not copied.

[9] = test system: healthy rats and rats having MI-induced heart failure; assay: In vivo cardiac hemodynamics (Millar PV loop, femoral arterial pressure) in healthy and MI-induced heart failure rats; design: species or system rat; settings: for mean dp/dt max increase: intravenous infusion, FIG. 9
Experimental: The cardiac function of healthy rats and the rats having MI (myocardial infarction)-induced heart failure was measured via the Millar PV loop system and femoral arterial pressure catheter were examined.
Male Lewis rats at 2-3 months of age were used for the studies. MI was induced by ligation of the left anterior descending coronary artery (LAD). Echocardiography was performed at 1 week post-MI for animal enrollment. If ejection fraction (EF) was more than 40% and no infarct was identified from echocardiography images, these animals were excluded from the study. The Millar PV loop catheter was inserted into the right common carotid artery and then advanced to the left ventricle (LV) for cardiovascular hemodynamic assessment. The arterial pressure catheter was inserted into a femoral artery for peripheral blood pressure monitoring.
Experiments were performed either on six-seven weeks post-MI rat, or healthy rats. […] Test articles were given intravenously via jugular vein, and 3 sets of peptide doses were used in the experiment. […] At the end of the experiment, the infarct size was verified by gross morphology if MI rats were used in the study.
Animals in MI groups had very similar infarct size (38-39% of LV) among the groups (results not shown).

[10] = test system: isolated cardiomyocyctes; settings: isolated cardiomyocytes; Barnes et al.; cited from earlier work
[11] = target: APJ receptor; assay: EC50 IP (µM)
Description: Table printed on a drawing sheet, FIGURE 3B
Head of the field: EC50 IP (µM)
Section band inside the table: Peptides with 525 Da PEG modification
The patent's description of the figure: FIGS. 3A-C.
First copying reader's note: Row 2 is a section heading spanning all columns; blanks inside names and sequences only mark line breaks within the printed cell.
Where the first naming reader finds the target: passage: An “APJ agonist” should be understood to refer to a molecule that is able to activate the APJ receptor.

[12] = target: T4, rat APJ receptor (rat, UniProt Q9JHG3 1-377); assay: cell-based or functional assay
T4 sequence (looked up): T2 sequence (Q9JHG3 1-377)

[13] = dose ranges from 5.5 to 88 μg/kg

Molecule: 3-(1-(2-(mPEG(20kDa))ethyl)-1H-1,2,3-triazol-4-yl)alanine-[hArg68;Cha69;Oic74;Nle75;4-Cl-F77]Apelin-17(61-77) [SEQ ID NO: 25]
agonist activity relative to pyr apelin-13 (SEQ ID NO: 128) [1]: potent and act as a full agonist

Molecule: 3-((2-(3-(mPEG(20kDa))propylamino)-2-oxoethyl)thio)propanamide-[hArg68;Cha69;Oic74;Nle75;4-Cl-Phe77]Apelin-17(61-77) [SEQ ID NO: 24]
agonist activity relative to pyr apelin-13 (SEQ ID NO: 128) [1]: potent and act as a full agonist
dp/dtmax [2]: dose dependent increase
dp/dtmin [2]: decrease
systolic pressure [2]: increases
EC50 [3]: 0.252 nM

Molecule: CSCC[C@H](NC(=O)[C@@H]1CCCN1C(=O)CNC(=O)[C@H](CCCCN)NC(=O)[C@H](Cc1cnc[nH]1)NC(=O)[C@H](CO)NC(=O)[C@H](CC(C)C)NC(=O)[C@H](CCCNC(=N)N)NC(=O)[C@@H]1CCCN1C(=O)[C@H](CCCNC(=N)N)NC(=O)[C@@H](N)CCC(N)=O)C(=O)N1CCC[C@H]1C(=O)N[C@@H](Cc1ccccc1)C(=O)O [Apelin-13]
plasma half-life [4]: < 5 min
remaining at 0.25 h, 5 μM [5]: 0.1%
in vitro plasma stability, % at 15 minutes [6]: 0.1%

Molecule: Atz(20K-mPEG)-LRP[hArg][Cha]SHKG[Oic][Nle]P[4-Cl-F] [compound 50]
in vitro plasma stability (t1/2, min) | HUMAN [7]: 264 min
in vitro plasma stability (t1/2, min) | MOUSE [7]: 64 min
in vitro plasma stability (t1/2, min) | RAT [7]: 256 min

Molecule: SEQ ID NO: 130: 20 kDa PEG-bis(Atz-KFRRQRP[hArg][Cha]SHKG[Oic][Nle]P[4-Cl—F]) (KFRRQRP[hArg][Cha]SHKG[Oic][Nle]P[Phe(4-Cl)]; not fully specified (N-terminus); also: 20 kDa PEG carries two peptide copies)
EC50 [8]: 0.407 nM

Molecule: SEQ ID NO: 131: 20 kDa PEG-tetrakis(Atz-KFRRQRP[hArg][Cha]SHKG[Oic][Nle]P[4-Cl—F]) (KFRRQRP[hArg][Cha]SHKG[Oic][Nle]P[Phe(4-Cl)]; not fully specified (N-terminus); also: 20 kDa PEG carries four peptide copies)
EC50 [8]: 0.794 nM

Molecule: [PE65;hArg68;Cha69;3-(1-(2-aminoethoxy(PEG9)ethyl)-1H-1,2,3-triazol-4-yl)Ala70;Oic74;Nle75;4-Cl-F77]Apelin-13(65-77) ([pGlu]RP[hArg][Cha][Atz](PEG10′)HKG[Oic][Nle]P[Phe(4-Cl)]) [SEQ ID NO: 23]
Heart rate (HR) increase ([9]; MI rats, intravenous infusion of 88 μg/kg accumulative dose): up to 10.6%
mean dp/dt max increase ([9]; MI rats): 24.5%
other cardiac hemodynamic changes [9, 13]: No other cardiac hemodynamic changes were observed
peripheral vascular resistant measurement such as mean arterial pressure [9, 13]: No significant changes
mean dp/dt max increase ([9]; healthy rats): 32%
dp/dtmax [2]: dose dependent increase
dp/dtmin [2]: decrease
systolic pressure [2]: increases

Molecule: apelin
increase in sarcomere shortening [10]: up to 140%

Molecule: {Hydrogen}[PE]RP[hArg][Cha][Pra(NPeg9) ]HKG[Oic][Nle][4-Cl-F]{FreeAcid}
EC50 [11]: 133 nM

Molecule: {Thiopropionyl(20K-mPEG)}LLRP[hArg][Cha]SHKG[Oic][Nle]P[4-Cl—F]{FreeAcid} ({mPEG 20 kDa}-[Mpa]LLRP[hArg][Cha]SHKG[Oic][Nle]P[Phe(4-Cl)]-OH) [SEQ ID NO: 124]
agonist activity relative to pyr apelin-13 (SEQ ID NO: 128) [1]: potent and act as a full agonist

EC50 (GTPγS assay) [12]: 1.37 nM
potency (GTPγS assay), fold reduction relative to 20 kDA (SEQ ID NO: 24) [12]: 5 fold
Molecule: {40K‑mPEG-Thiopropionyl}-KFRRQRP[hArg][Cha]SHKG[Oic][Nle]P[Phe(4-Cl)]-OH [{Thiopropionyl(40K-mPEG)}KFRRQRP[hArg][Cha]SHKG[Oic][Nle]P[4-Cl-F]{FreeAcid}]

EC50 (GTPγS assay) [12]: 0.252 nM
Molecule: {20K‑mPEG-Thiopropionyl}-KFRRQRP[hArg][Cha]SHKG[Oic][Nle]P[Phe(4-Cl)] [Thiopropionyl(20K-mPEG)-KFRRQRP[hArg][Cha]SHKG[Oic][Nle]P[4-Cl-F]]

— US20160067347A1, “APJ RECEPTOR AGONISTS AND USES THEREOF” (AMGEN INC., priority 2012, published 2016)
